Legend:
[1] = target: T1, B-Raf kinase (Homo sapiens, UniProt P15056); experiment: B-Raf kinase assay ([33P] incorporation into MEK1 K97R); assay type: biochemical; conditions: recombinant B-Raf, 8 μM ATP, 30 min, 30° C.; read-out: IC50 ranking against B-Raf kinase
T1 construct: purchased Upstate Biotechnology
How it was run: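 Recombinant B-Raf (5 ng) phosphorylating MEK1 K97R (500 ng) with 8 μM ATP plus [33P]ATP in Tris/HCl pH 7.5 buffer, 30 min at 30° C. Filter-captured 33P counted by scintillation; IC50 from 3-fold serial dilutions run in duplicate.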

[2] = target: T2, B-Raf^V600E kinase (Homo sapiens, UniProt P15056, V600E); experiment: B-Raf V600E kinase assay ([33P] incorporation into MEK1 K97R); assay type: biochemical; conditions: recombinant B-Raf^V600E, 8 μM ATP, 30 min, 30° C.; read-out: IC50 ranking against B-Raf^V600E kinase
T2 construct: purchased Upstate Biotechnology
T2 sequence (P15056 whole entry V600E): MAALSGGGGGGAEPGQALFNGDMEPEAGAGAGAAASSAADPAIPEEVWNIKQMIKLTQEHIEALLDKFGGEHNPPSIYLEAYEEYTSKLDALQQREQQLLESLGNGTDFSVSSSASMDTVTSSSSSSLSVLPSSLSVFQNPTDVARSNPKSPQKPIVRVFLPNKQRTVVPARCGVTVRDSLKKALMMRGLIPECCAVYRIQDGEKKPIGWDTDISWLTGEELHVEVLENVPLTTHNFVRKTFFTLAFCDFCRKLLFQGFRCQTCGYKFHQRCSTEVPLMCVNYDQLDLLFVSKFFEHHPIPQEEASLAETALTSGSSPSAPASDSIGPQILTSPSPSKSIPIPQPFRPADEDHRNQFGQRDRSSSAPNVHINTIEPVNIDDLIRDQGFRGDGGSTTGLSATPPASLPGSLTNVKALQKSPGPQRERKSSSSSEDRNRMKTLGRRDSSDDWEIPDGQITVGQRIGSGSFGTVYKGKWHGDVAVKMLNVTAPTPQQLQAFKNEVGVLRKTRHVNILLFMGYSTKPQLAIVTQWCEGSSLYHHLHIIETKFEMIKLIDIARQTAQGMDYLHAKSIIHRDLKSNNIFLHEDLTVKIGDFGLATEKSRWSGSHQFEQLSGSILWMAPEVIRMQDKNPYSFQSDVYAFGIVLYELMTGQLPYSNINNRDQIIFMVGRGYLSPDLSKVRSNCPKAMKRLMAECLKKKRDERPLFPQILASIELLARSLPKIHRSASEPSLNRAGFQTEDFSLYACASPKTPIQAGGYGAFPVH
How it was run: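 Recombinant B-Raf V600E (5 ng) phosphorylating MEK1 K97R (500 ng) with 8 μM ATP plus [33P]ATP in Tris pH 7.5 buffer, 30 min at 30 °C. Filter-bound 33P counted by scintillation; IC50 from 3-fold dilution series in duplicate.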

[3] = target: T3, C-Raf kinase (Homo sapiens, UniProt P04049); experiment: C-Raf kinase assay ([33P] incorporation into MEK1 K97R); assay type: biochemical; conditions: recombinant C-Raf, 8 μM ATP, 30 min, 30° C.; read-out: IC50 ranking against C-Raf kinase
T3 construct: purchased Upstate Biotechnology
T3 sequence (P04049 whole entry): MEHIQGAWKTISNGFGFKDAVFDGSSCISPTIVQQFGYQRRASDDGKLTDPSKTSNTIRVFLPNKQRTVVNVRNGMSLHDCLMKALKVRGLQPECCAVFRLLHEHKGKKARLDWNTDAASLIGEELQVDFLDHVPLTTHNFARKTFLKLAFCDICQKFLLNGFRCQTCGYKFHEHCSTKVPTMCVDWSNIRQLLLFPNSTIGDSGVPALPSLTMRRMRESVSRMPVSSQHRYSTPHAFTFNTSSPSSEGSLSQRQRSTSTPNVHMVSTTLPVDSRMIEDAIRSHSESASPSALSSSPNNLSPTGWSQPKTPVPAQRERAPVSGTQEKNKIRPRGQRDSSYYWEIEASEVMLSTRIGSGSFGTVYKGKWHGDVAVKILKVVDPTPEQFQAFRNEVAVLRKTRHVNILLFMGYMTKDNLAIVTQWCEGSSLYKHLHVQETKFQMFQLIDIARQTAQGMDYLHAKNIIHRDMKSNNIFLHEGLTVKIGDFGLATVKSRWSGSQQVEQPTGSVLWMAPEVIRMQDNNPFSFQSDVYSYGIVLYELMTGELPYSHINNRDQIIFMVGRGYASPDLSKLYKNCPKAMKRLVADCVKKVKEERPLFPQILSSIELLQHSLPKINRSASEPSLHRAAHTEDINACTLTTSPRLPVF
How it was run: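 Recombinant C-Raf (2 ng) phosphorylating MEK1(K97R) with 8 μM ATP plus [33P]ATP, pH 7.5 Tris buffer, 30 min at 30° C. Acid-stopped, filter-captured 33P counted by scintillation; IC50 from 3-fold dilution series run in duplicate.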

[4] = system: B-Raf^V600E mutant A375 melanoma cell; experiment: Cell proliferation assay (CELLTITER 96), A375; assay type: cell-based; conditions: Homo sapiens, A-375; A375, 72 hours; read-out: Cytotoxicity (IC50 Ranking) A375 (B-Raf^V600E)
How it was run: (§1)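 Cells seeded overnight (A375 and COLO205 at 2000, SK-MEL-2 at 4000 cells/well), then exposed to increasing compound concentrations for 72 h at 37° C. Viability read by MTS absorbance at 490 nm after 4 h reagent; IC50 from curve fit of percent growth inhibition versus concentration.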

[5] = system: B-Raf^V600E mutant COLO205 colon cancer cell; experiment: Cell proliferation assay (CELLTITER 96), COLO205; assay type: cell-based; conditions: Homo sapiens, COLO 205; COLO205, 72 hours; read-out: Cytotoxicity (IC50 Ranking) COLO205 (B-Raf^V600E)
How it was run: as §1

[6] = system: SK-MEL-2 melanoma cell with wild type B-Raf (B-Raf^wt) and NRAS^Q61R mutation; experiment: Cell proliferation assay (CELLTITER 96), SK-MEL-2; assay type: cell-based; conditions: Homo sapiens; SK-MEL-2, 72 hours; given as bound; read-out: Cytotoxicity (IC50 Ranking) SK-MEL-2 (NRAS^Q61R, B-Raf^wt)
How it was run: as §1

T1 sequence (P15056 whole entry): as the sequence (P15056 whole entry V600E) above, with E600V counted along it

Structure (SMILES) | IC50 [1] | IC50 [2] | IC50 [3] | IC50 [4] | IC50 [5] | IC50 [6]
CCCS(=O)(=O)Nc1ccc(C)c(Nc2ccc3ncc(OC)nc3c2C#N)c1 [compound 40, N-(3-(5-cyano-3-methoxyquinoxalin-6-ylamino)-4-methylphenyl)propane-1-sulfonamide] | 300 to 1000 nM | 300 to 1000 nM | 300 to 1000 nM | 1000 to 10000 nM | 1000 to 10000 nM | > 10000 nM
COc1cnc2ccc(Nc3cc(NS(C)(=O)=O)ccc3F)c(C#N)c2n1 [compound 41, N-(3-(5-cyano-3-methoxyquinoxalin-6-ylamino)-4-fluorophenyl)methanesulfonamide] | 1000 to 10000 nM | 1000 to 10000 nM | 1000 to 10000 nM | 1000 to 10000 nM | 1000 to 10000 nM | > 10000 nM
CCCS(=O)(=O)N(CC)c1ccc(F)c(Nc2ccc3ncc(OC)nc3c2C#N)c1F [compound 42, N-(3-(5-cyano-3-methoxyquinoxalin-6-ylamino)-2,4-difluorophenyl)-N-ethylpropane-1-sulfonamide] | < 300 nM | < 300 nM | < 300 nM | < 300 nM | < 300 nM | > 10000 nM
CCCS(=O)(=O)N(C)c1ccc(F)c(Nc2ccc3ncc(OC)nc3c2C#N)c1F [compound 43, N-(3-(5-cyano-3-methoxyquinoxalin-6-ylamino)-2,4-difluorophenyl)-N-methylpropane-1-sulfonamide] | < 300 nM | < 300 nM | < 300 nM | < 300 nM | < 300 nM | > 10000 nM
CCCS(=O)(=O)Nc1cccc(Nc2ccc3ncc(OC)nc3c2C#N)c1C [compound 44, N-(3-(5-cyano-3-methoxyquinoxalin-6-ylamino)-2-methylphenyl)propane-1-sulfonamide] | < 300 nM | 300 to 1000 nM | < 300 nM | 300 to 1000 nM | 300 to 1000 nM | > 10000 nM
CCCS(=O)(=O)Nc1ccc(F)c(Nc2ccc3ncc(OC)nc3c2C#N)c1Cl [compound 46, N-(2-chloro-3-(5-cyano-3-methoxyquinoxalin-6-ylamino)-4-fluorophenyl)propane-1-sulfonamide] | < 300 nM | < 300 nM | < 300 nM | < 300 nM | < 300 nM | > 10000 nM

Second part, led by results:

IC50 [1] | IC50 [2] | IC50 [3] | Structure (SMILES) | IC50 [4] | IC50 [5] | IC50 [6]
< 300 nM | < 300 nM | < 300 nM | COc1cnc2ccc(Nc3c(F)ccc(NS(=O)(=O)c4ccccc4)c3Cl)c(C#N)c2n1 [compound 47, N-(2-chloro-3-(5-cyano-3-methoxyquinoxalin-6-ylamino)-4-fluorophenyl)benzenesulfonamide] | < 300 nM | < 300 nM | > 10000 nM
< 300 nM | < 300 nM | < 300 nM | CCCS(=O)(=O)Nc1ccc(F)c(Nc2ccc3ncc(N4CCOCC4)nc3c2C#N)c1Cl [compound 48, N-(2-chloro-3-(5-cyano-3-morpholinoquinoxalin-6-ylamino)-4-fluorophenyl)propane-1-sulfonamide] | < 300 nM | < 300 nM | > 10000 nM
< 300 nM | < 300 nM | < 300 nM | N#Cc1c(Nc2c(F)ccc(NS(=O)(=O)c3ccccc3)c2Cl)ccc2ncc(N3CCOCC3)nc12 [compound 49, N-(2-chloro-3-(5-cyano-3-morpholinoquinoxalin-6-ylamino)-4-fluorophenyl)benzenesulfonamide] | < 300 nM | < 300 nM | > 10000 nM
< 300 nM | < 300 nM | < 300 nM | CCCS(=O)(=O)Nc1cccc(Nc2ccc3ncc(OC)nc3c2C#N)c1C#N [compound 50, N-(2-cyano-3-(5-cyano-3-methoxyquinoxalin-6-ylamino)phenyl)propane-1-sulfonamide] | < 300 nM | < 300 nM | > 10000 nM

Source: patent US10745360B2, “Quinoxaline compounds, method for preparing the same and use thereof” (Development Center for Biotechnology, priority 2014, dated 2020)
